Results on eight compounds are retold here after patent publication US20210338629A1, “ORAL FORMULATIONS OF PHENYLALANINE AND CANNABINOIDS” (priority 2018, published 2021).

Series [1] has as its target T1, human CB1R (Homo sapiens, UniProt P21554).
T1 construct: expressed in transfected cells; host or cells: HEK293T (HEK293T-CB1), transiently co-transfected with the CRE-luc reporter
In kind it is cell-based.

In series [2] the target is T1, human CB1R. Format: cell-based. Particulars: for Effect of the cannabinoid on the DLPA effect (DLPA alone vs combos): FIG. 5A-5C.
Series [3] concerns neuropathic and chronic pain. Particulars: 1,000 mg given ×1 (once a day); cited from earlier work.
Series [4] has as its system inflammation. Particulars: co-administered with THC; cited from earlier work.
For series [5] the following is noted: cited from earlier work.
In series [6] the test system is glutamatergic synapses in hippocampus and cortex. Particulars: cited from earlier work.
The target in series [7] is α2δ Ca2+ calcium channels. Particulars: antagonist; cited from earlier work.
Setting [8] is: DLPA 1 mM, alone or + 10 μM THCA or THC.
The mark [9] stands for this setting: DLPA 2.5 mM, alone or + 10 μM THCA or THC.
Where [10] appears, read: DLPA 5 mM, alone or + 10 μM THCA or THC.
Setting [11] is: DLPA 7.5 mM, alone or + 10 μM THCA or THC.
Where [12] appears, read: DLPA 10 mM, alone or + 10 μM THCA or THC.
Setting [13] is: DLPA 1 mM, alone or + 10 μM THCA, 1 μM CBD or 10 μM THC.
Where [14] appears, read: DLPA 2.5 mM, alone or + 10 μM THCA, 1 μM CBD or 10 μM THC.
Setting [15] is: DLPA 5 mM, alone or + 10 μM THCA, 1 μM CBD or 10 μM THC.
The mark [16] stands for this setting: DLPA 7.5 mM, alone or + 10 μM THCA, 1 μM CBD or 10 μM THC.
Setting [17] is: DLPA 10 mM, alone or + 10 μM THCA, 1 μM CBD or 10 μM THC.
Where [18] appears, read: THCA or THC without DLPA, 10 μM.

Where two headings read alike, the source gives them in different places.

T1 sequence (P21554 whole entry): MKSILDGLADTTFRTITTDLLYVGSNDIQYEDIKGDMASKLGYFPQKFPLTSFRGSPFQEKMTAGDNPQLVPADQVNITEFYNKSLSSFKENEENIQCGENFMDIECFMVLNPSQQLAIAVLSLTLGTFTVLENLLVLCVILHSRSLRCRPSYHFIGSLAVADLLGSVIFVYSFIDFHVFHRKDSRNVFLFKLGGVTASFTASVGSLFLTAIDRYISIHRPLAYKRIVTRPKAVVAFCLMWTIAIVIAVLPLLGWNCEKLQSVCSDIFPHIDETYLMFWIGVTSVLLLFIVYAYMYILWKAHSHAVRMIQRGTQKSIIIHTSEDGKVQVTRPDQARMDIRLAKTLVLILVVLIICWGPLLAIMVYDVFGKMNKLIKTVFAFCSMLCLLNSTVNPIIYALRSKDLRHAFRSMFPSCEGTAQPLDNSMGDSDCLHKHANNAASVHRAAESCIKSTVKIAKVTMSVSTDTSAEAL

Regarding `NC(Cc1ccccc1)C(=O)O` (racemic) [DLPA, DL-Phenylalanine], the “Conclusions: Is CB1R agonist effect observed?” value in series [1] (setting [8]), in series [1] (setting [9]), in series [1] (setting [10]), in series [1] (setting [11]) and in series [1] (setting [12]) was “Negative (Only treatments that the mean of three consecutive independent experiments shows a positive result: CB1R activity ≥2.5-fold increase or ≥4-fold increase are considered CB1R agonists or CB1R positive allosteric modulators)” throughout. Further, the “Experiment 1 Fold change” value in series [1] (setting [8]) is on record as 0.9 fold change; in series [1] (setting [9]), 1.0 fold change; in series [1] (setting [10]) it was 0.8 fold change; in series [1] (setting [11]), 1.0 fold change; in series [1] (setting [12]), 1.1 fold change; in series [2] (setting [13]) it was 2.7 fold change. Moreover, the “Experiment 1 Fold change” value was found to be 2.4 fold change in series [2] (setting [14]), 3.1 fold change in series [2] (setting [15]), 3.1 fold change in series [2] (setting [16]) and 4.0 fold change in series [2] (setting [17]). Besides, the “Experiment 2 Fold change” value in series [1] (setting [8]) amounted to 0.9 fold change; in series [1] (setting [9]) it was 0.9 fold change; in series [1] (setting [10]) it was 0.8 fold change; in series [1] (setting [11]), 0.8 fold change; in series [1] (setting [12]), 1.0 fold change; in series [2] (setting [13]), 2.5 fold change. Moreover, the “Experiment 2 Fold change” value in series [2] (setting [14]) is listed as 2.1 fold change; in series [2] (setting [15]), 2.7 fold change; in series [2] (setting [16]) it was 3.1 fold change; in series [2] (setting [17]), 3.5 fold change. Further, the “Experiment 3 Fold change” value was 1.0 fold change in series [1] (setting [8]); 0.9 fold change in series [1] (setting [9]); 0.7 fold change in series [1] (setting [10]); 1.0 fold change in series [1] (setting [11]); 1.0 fold change in series [1] (setting [12]); 3.0 fold change in series [2] (setting [13]). The “Experiment 3 Fold change” value is listed as 4.0 fold change in series [2] (setting [14]), 2.9 fold change in series [2] (setting [15]), 5.0 fold change in series [2] (setting [16]) and 6.5 fold change in series [2] (setting [17]). In addition, in series [1] (all tested concentrations, DLPA 1-10 mM, THC or THCA 10 μM), the “CB1R agonistic activity (in words)” value is recorded as “did not show CB1R agonistic activity”. In addition, the “Conclusions: Is CB1R positive allosteric agonism effect observed?” value in series [2] (setting [13]) is given as “Negative (Only treatments that the mean of three consecutive independent experiments shows a positive result (CB1R activity ≥4-fold change) are considered positive CB1R allosteric agonists)”; in series [2] (setting [14]) it was “Negative (Only treatments that the mean of three consecutive independent experiments shows a positive result (CB1R activity ≥4-fold change) are considered positive CB1R allosteric agonists)”; in series [2] (setting [15]) it was “Negative (Only treatments that the mean of three consecutive independent experiments shows a positive result (CB1R activity ≥4-fold change) are considered positive CB1R allosteric agonists)”; in series [2] (setting [16]), “Negative (Only treatments that the mean of three consecutive independent experiments shows a positive result (CB1R activity ≥4-fold change) are considered positive CB1R allosteric agonists)”; in series [2] (setting [17]), “Allosterism (An increase of the fold change ≥4-fold indicates CB1R positive allosteric agonistic activity)”. Moreover, the “CB1R positive allosteric effect (in words)” value in series [2] (on CP-55940 activity, dose-response curve, FIG. 4) is recorded as “clear CB1R positive allosteric effect”. For the same compound, the “Relief of neuropathic and chronic pain” value in series [3] is listed as “beneficial”.
For `CCCCCc1cc(O)c2c(c1)OC(C)(CCC=C(C)C)C=C2` (stereo not drawn) [CBC, cannabichromene], the Anti-inflammatory effect result in series [4] is “enhanced anti-inflammatory effect”.
Take `C=C(C)[C@@H]1CCC(C)=C[C@H]1c1c(O)cc(CCCCC)cc1O` [CBD, cannabidiol, reference compound]: in series [2] (CBD without DLPA, 1 μM), the “Conclusions: Is CB1R positive allosteric agonism effect observed?” value was “Negative (Only treatments that the mean of three consecutive independent experiments shows a positive result (CB1R activity ≥4-fold change) are considered positive CB1R allosteric agonists)”, the “Experiment 1 Fold change” value was found to be 1.4 fold change, the “Experiment 2 Fold change” value came out at 1.5 fold change and the “Experiment 3 Fold change” value was 1.4 fold change. In series [2], the “Effect of the cannabinoid on the DLPA effect (DLPA alone vs combos)” value is listed as “blocked not only the DLPA CB1R allosteric activity, but also the agonistic activity of CP-55940”.
On to `C=C(C)[C@@H]1CCC(C)=C[C@H]1c1c(O)cc(CCCCC)c(C(=O)O)c1O` [CBDA, cannabidiolic acid], for which the “Decarboxylation by gastric acids” value in series [5] is “do not decarboxylate”.
As for `CCCCCCC(C)(C)c1ccc([C@@H]2C[C@H](O)CC[C@H]2CCCO)c(O)c1` [CP, reference compound], in series [1], the “Experiment 1 Fold change” value amounted to 2.5 fold change, the “Experiment 2 Fold change” value stood at 2.5 fold change and the “Experiment 3 Fold change” value is recorded as 2.5 fold change. In addition, in series [2], the “Experiment 1 Fold change” value is 2.5 fold change, the “Experiment 2 Fold change” value was 2.5 fold change and the “Experiment 3 Fold change” value was 2.5 fold change.
As for `N[C@H](Cc1ccccc1)C(=O)O` [D-phenylalanine], the “Effect on neurotransmitter release (in words)” value in series [6] (compared with L-Phenylalanine) is recorded as “significantly smaller effect”.
For orientation: Ki means the dissociation constant of the complex between target and ligand, obtained from inhibition or displacement. The term IC50 denotes the concentration at which inhibition is half-maximal. With `N[C@@H](Cc1ccccc1)C(=O)O` [L-Phenylalanine, L-phenylalanine], the Ki in series [7] is 0.98 µM. Further, in series [6] (hippocampus and cortex), the half-inhibitory concentration (IC50) is 980 µM.
With `CCCCCc1cc2c(c(O)c1C(=O)O)[C@@H]1C=C(C)CC[C@H]1C(C)(C)O2` [THCA, tetrahydrocannabinolic acid], in series [1] (THCA or THC alone, 10 μM), the “Conclusions: Is CB1R agonist effect observed?” value is reported as “Negative (Only treatments that the mean of three consecutive independent experiments shows a positive result: CB1R activity ≥2.5-fold increase or ≥4-fold increase are considered CB1R agonists or CB1R positive allosteric modulators)”, the “Experiment 1 Fold change” value is 0.8 fold change, the “Experiment 2 Fold change” value is recorded as 1.0 fold change and the “Experiment 3 Fold change” value was 1.0 fold change. In series [2], the “Effect of the cannabinoid on the DLPA effect (DLPA alone vs combos)” value is “did not modify the DLPA effect”. Moreover, in series [2] (setting [18]), the “Conclusions: Is CB1R positive allosteric agonism effect observed?” value is reported as “Negative (Only treatments that the mean of three consecutive independent experiments shows a positive result (CB1R activity ≥4-fold change) are considered positive CB1R allosteric agonists)”, the “Experiment 1 Fold change” value turned out to be 2.2 fold change, the “Experiment 2 Fold change” value turned out to be 3.1 fold change and the “Experiment 3 Fold change” value came out at 2.8 fold change. Further, the “Decarboxylation by gastric acids” value in series [5] is “do not decarboxylate”.
